Test results: US12240844B2 (Voronoi, Inc., priority 2019, dated 2025)

Key:
[1] = target: T1, LRRK2, LRRK2 (G2019S), DYRK1, CLK1 and TTK kinases (Homo sapiens, UniProt P49759); assay: Enzyme IC50 by Kinase HotSpot service (Reaction Biology Corporation), values marked with *; assay type: biochemical; conditions: CLK1, ATP 10 uM
T1 construct: CLK1 IC50 (marked with *); other: CLK1; Kinase HotSpot service (Reaction Biology), ATP 10 uM
Experimental: (§1) Meanwhile, the enzyme IC50 measurement for some compounds was performed using Kinase HotSpot service (Reaction Biology Corporation); during the test, the ATP concentration was 10 uM, where all were conducted under the same condition; and the concentration of the compound was measured by giving a 3-fold concentration gradient with the highest concentration of […], where the values measured using Kinase HotSpot service (Reaction Biology Corporation) were marked with “*”.
(§2) All experimental methods were performed as provided in Kinase HotSpot Customer Protocol (http://www.reactionbiology.com//Kinase_Assay_Protocol).
(§3) In the table below, the following designations were used for the evaluation of enzyme inhibitory ability.

[2] = target: T2, LRRK2, LRRK2 (G2019S), DYRK1, CLK1 and TTK kinases (Homo sapiens, UniProt Q13627); assay: as above; assay type: biochemical; conditions: DYRK1, ATP 10 uM
T2 construct: other: DYRK1; Kinase HotSpot service (Reaction Biology), ATP 10 uM
Experimental: as §1, §2, §3

[3] = target: T3, LRRK2, LRRK2 (G2019S), DYRK1, CLK1 and TTK kinases (Homo sapiens, UniProt Q5S007); assay: as above; assay type: biochemical; conditions: LRRK2, ATP 10 uM
T3 construct: LRRK2 IC50 (marked with *); other: LRRK2; Kinase HotSpot service (Reaction Biology), ATP 10 uM
T3 sequence (Q5S007 whole entry G2019S): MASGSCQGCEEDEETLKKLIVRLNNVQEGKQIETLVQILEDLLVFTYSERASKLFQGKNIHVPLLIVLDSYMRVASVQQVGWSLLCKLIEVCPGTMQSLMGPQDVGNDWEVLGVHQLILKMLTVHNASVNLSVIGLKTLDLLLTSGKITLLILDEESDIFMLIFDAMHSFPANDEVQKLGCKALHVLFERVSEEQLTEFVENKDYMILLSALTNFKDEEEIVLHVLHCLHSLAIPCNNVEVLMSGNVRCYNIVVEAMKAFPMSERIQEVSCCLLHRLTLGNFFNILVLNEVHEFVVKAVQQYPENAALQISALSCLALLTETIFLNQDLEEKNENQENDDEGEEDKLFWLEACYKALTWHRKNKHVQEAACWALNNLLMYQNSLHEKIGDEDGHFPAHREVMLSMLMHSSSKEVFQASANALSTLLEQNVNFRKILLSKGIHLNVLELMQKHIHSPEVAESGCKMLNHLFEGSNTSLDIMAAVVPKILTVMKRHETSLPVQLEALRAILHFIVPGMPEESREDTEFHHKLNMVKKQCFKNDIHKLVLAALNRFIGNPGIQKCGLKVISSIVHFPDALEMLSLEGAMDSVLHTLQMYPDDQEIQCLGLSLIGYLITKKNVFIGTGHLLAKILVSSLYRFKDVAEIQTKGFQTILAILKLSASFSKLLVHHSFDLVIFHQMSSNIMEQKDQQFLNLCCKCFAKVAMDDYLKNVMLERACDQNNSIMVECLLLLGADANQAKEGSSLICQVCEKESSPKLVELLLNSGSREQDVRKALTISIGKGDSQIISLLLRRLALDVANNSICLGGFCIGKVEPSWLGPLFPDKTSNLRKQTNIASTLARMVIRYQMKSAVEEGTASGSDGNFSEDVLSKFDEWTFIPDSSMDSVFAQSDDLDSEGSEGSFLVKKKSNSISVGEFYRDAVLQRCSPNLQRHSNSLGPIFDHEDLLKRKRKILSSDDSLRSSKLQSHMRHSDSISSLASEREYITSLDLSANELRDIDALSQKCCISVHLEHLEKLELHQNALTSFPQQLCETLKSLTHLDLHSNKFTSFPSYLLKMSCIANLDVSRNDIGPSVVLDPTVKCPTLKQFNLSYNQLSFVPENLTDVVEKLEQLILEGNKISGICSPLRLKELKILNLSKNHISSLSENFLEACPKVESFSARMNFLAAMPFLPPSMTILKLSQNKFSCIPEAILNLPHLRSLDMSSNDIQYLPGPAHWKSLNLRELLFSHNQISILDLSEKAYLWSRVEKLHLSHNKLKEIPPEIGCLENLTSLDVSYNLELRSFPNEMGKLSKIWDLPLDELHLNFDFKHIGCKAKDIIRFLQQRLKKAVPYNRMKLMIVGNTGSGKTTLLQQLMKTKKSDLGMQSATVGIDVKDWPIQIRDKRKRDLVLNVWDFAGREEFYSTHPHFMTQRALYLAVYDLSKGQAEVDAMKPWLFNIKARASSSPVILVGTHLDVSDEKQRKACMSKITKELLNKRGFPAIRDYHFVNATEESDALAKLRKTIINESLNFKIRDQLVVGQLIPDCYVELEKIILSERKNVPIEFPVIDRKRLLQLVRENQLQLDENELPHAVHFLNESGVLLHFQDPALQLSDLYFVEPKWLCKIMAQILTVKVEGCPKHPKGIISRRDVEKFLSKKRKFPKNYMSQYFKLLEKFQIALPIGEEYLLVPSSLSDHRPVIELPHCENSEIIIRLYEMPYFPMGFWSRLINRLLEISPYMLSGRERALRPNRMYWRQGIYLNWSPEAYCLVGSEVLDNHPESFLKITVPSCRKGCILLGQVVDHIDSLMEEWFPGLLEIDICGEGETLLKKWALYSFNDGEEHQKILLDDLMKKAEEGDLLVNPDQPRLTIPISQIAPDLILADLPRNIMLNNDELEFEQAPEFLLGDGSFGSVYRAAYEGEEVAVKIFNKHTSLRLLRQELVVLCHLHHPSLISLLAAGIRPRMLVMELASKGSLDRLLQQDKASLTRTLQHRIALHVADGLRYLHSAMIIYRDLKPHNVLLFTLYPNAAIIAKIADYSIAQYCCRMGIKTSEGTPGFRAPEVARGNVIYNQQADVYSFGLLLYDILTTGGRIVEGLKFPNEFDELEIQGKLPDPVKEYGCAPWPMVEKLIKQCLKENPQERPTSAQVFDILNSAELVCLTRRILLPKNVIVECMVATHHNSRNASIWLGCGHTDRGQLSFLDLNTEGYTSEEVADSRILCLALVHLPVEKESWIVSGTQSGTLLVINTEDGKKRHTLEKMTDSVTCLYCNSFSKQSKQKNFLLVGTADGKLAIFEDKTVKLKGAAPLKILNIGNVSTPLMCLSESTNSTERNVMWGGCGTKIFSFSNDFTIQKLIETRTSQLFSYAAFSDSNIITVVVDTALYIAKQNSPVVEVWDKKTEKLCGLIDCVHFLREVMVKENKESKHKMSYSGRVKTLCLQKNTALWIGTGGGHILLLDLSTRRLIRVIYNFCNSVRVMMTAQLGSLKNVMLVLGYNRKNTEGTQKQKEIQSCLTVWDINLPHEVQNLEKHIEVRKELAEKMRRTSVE
Experimental: as §1, §2, §3

[4] = target: T4, LRRK2, LRRK2 (G2019S), DYRK1, CLK1 and TTK kinases (Homo sapiens, UniProt Q5S007, G2019S); assay: as above; assay type: biochemical; conditions: LRRK2 (G2019S), ATP 10 uM
T4 construct: other: LRRK2 (G2019S); Kinase HotSpot service (Reaction Biology), ATP 10 uM
T4 sequence (Q5S007 whole entry G2019S): as above
Experimental: as §1, §2, §3

MDA-MB-231 cell line = assay: MDA-MB-231 cancer cell proliferation inhibition (Cell Titer-Glo); assay type: cell-based; conditions: Homo sapiens, MDA-MB-231 triple-negative breast cancer cell line, 72 hours
How it was run: (§4)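 GI50 comes from CellTiter-Glo luminescence, read 10 min after reagent addition at RT, following 72 h compound treatment. Eleven concentrations were used (⅓ steps, highest 10 μM final) on 2000 cells/well. MDA-MB-231 and MDA-MB-468 were grown in DMEM, SHP-77 in RPMI.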

SHP-77 = SHP-77 cancer cell proliferation inhibition (Cell Titer-Glo); assay type: cell-based; conditions: Homo sapiens, SHP77, SHP-77 small cell lung cancer cell line, 72 hours
How it was run: as §4

human DYRK1A and Tau = assay: Tau phosphorylation inhibition, ClariCELL Kinase Cell-Based Assay (Carnabio)
How it was run: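 HEK293 cells transiently expressing human DYRK1A and Tau were exposed to compound, then lysed. Released Tau was captured on plate and its phosphorylation quantified by ELISA with a phospho-Tau-specific antibody.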

TTK = target: T5, TTK (Homo sapiens, UniProt P33981); assay: TTK enzyme inhibition, ADP-Glo kinase assay; assay type: biochemical; design: purchased Signalchem T20-10G; conditions: ATP 5 μM
T5 sequence (P33981 1-857): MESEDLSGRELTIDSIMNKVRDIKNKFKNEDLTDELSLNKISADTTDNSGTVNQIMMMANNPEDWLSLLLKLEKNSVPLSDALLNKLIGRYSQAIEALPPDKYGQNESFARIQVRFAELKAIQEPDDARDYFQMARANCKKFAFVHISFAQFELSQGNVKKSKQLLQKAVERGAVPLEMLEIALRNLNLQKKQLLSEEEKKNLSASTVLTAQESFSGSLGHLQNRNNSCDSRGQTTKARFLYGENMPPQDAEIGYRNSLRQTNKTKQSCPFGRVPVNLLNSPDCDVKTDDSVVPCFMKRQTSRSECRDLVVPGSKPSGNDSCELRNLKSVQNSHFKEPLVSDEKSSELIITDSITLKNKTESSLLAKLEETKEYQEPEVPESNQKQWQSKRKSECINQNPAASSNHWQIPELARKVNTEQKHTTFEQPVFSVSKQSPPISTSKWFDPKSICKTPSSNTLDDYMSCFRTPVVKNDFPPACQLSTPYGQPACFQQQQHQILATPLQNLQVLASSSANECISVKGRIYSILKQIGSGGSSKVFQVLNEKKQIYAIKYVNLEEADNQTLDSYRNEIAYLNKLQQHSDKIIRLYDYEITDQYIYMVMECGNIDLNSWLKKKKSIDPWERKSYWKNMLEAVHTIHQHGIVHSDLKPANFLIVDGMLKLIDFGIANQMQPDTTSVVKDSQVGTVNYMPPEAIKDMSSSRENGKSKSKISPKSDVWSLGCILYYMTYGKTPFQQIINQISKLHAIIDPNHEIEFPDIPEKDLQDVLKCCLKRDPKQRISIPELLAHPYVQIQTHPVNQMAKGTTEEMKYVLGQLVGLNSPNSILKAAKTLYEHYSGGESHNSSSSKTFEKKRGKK
Experimental: In order to evaluate the inhibitory activity of the compounds according to the present invention on LRRK2, LRRK2 (G2019S), DYRK1, CLK1 and TTK kinases, the following experiment was performed.
Example compounds were reacted with the purified human TTK (Signalchem #T20-10G) enzyme to evaluate the enzyme inhibitory ability as follows. The reaction buffer was used as the composition of 40 mM Tris-HCl pH7.4, 20 mM MgCl2, 0.1 mg/ml BSA (5× kinase buffer, Signalchem #K03-09) and 50 μM DTT (Signalchem #D86-09B), and the reaction of all test materials was performed on the reaction buffer. The compound was diluted with 10 mM DMSO stock in […] by a serial dilution method, and the enzyme activity was measured at the final compound concentrations of 1, 0.333333, 0.111111, 0.037037, 0.012346, 0.004115, 0.001372, 0.000457, 0.000152, 0.000051 and 0.000017 μM. In the test, the human TTK (7.5 ng) enzyme was reacted with the purified ATP (5 μM, Promega #V6930) and an MBP enzyme substrate (0.2 μg, Signalchem M42-51N) at 25° C. for 4 hours, and then the enzyme activity was identified using the in vitro ADP-Glo™ kinase assay (Promega #V6930). The enzyme activity reaction liquid, an ADP-Glo reaction liquid and an enzyme potency detection solution were reacted in a ratio of 2:2:1, and the degree of inhibition of enzyme activity was measured by luminescence. The degree of inhibition of enzyme activity according to the treatment concentrations of the respective compounds was calculated based on the luminescence degree of the enzyme activity of a solvent control group that was not treated with the compound, where the concentration of each compound to inhibit enzyme activity inhibition by 50% was determined as an IC50 (nM) value and obtained using Prism (Version 8.2, GraphPad) software.
as §3

T1 sequence (P49759 whole entry, stated change not applied): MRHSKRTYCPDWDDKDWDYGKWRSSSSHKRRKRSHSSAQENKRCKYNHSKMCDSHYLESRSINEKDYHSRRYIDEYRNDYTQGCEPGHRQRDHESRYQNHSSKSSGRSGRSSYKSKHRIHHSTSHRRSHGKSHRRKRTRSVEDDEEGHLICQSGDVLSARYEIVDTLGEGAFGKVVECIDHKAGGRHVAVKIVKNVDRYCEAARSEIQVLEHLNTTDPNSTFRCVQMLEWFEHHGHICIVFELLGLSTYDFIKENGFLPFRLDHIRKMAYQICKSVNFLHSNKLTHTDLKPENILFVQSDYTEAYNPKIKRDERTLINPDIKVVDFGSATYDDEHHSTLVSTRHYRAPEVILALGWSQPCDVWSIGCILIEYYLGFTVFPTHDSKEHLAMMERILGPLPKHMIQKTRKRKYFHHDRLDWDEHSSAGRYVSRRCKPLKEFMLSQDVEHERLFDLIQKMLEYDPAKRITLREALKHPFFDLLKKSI

IC50 [1]: < 100 nM | IC50 [2]: < 100 nM | IC50 [3]: < 100 nM | IC50 [4]: < 100 nM | GI50 (MDA-MB-231 cell line): 301 to 1000 nM | GI50 (SHP-77): 301 to 1000 nM | IC50 (TTK): < 100 nM
SMILES: COc1cc(S(=O)(=O)N2CCC(N3CCOCC3)CC2)ccc1Nc1cc(C2CC2)c2c(C(F)(F)F)c[nH]c2n1 [Example 223, 4-cyclopropyl-N-(2-methoxy-4-((4-morpholinopiperidin-1-yl)sulfonyl)phenyl)-3-(trifluoromethyl)-1H-pyrrolo[2,3-b]pyridin-6-amine]
inhibition at 0.25 µM (human DYRK1A and Tau; 0.25 uM): 4.6% | inhibition at 0.5 µM (human DYRK1A and Tau; 0.5 uM): 12.9% | inhibition at 1 µM (human DYRK1A and Tau; 1 uM): 29%
